Assays:
[1] = Pharmacokinetic study of artemisinin, plasma level by HPLC; assay type: in vivo, albino wistar rats; conditions: rats, 100 mg artemisinin in 0.5% aqueous CMC
Description: A pharmacokinetic study of artemisinin was carried out. The study was performed using 36 healthy albino wistar rats with a weight ranging from 180 to 200 grams. The wistar rats were taken and divided into three groups; a control group, the orthorhombic crystal form group and the triclinic crystal form group. A sparse technique was used to collect blood samples (n=6). The animals were housed in standard metabolism cages and were subject to fasting conditions for 12 hours before dosing. The animals were allowed free movement and access to water throughout the experiment. […] At predetermined time intervals, blood samples were obtained by the retro orbital technique and collected in EDTA tubes. Plasma was obtained by centrifugation of the blood sample at 3500 revolutions per minute (rpm) for 15 minutes. A volume of 200 μl of plasma was pipetted into Eppendorf tubes and 100 μl of internal standard (artemether solution […]) and 700 μl methanol were added. […] The collected sample was then subjected to analysis by HPLC. […] The HPLC system consisted of an Agilent 1200 series, UV detector (Agilent Technologies, […], Wokingham, United Kingdom) set at 210 nm and a C18 column (250×4.6 mm). […] The plasma concentration-time profiles were plotted and Areas Under Curve (AUC) were calculated (shown in FIG. 35) using the Trapezoidal rule.

[2] = Stability study of triclinic form recrystallised from cyclohexane, PXRD; assay type: physicochemical; conditions: recrystallised from cyclohexane at 80° C., vacuum dried
Text: The product obtained was vacuum dried and the crystal form was confirmed by PXRD.

[3] = In-vitro dissolution profile, USP-XXVI paddle method; assay type: physicochemical; conditions: water, 600 ml, 75 rpm, 37° C., 20 mg artemisinin
[4] = Effect of externally added solvents on extruded triclinic form, stability by PXRD; assay type: physicochemical
Text: Effect of different solvents such as acetone, ethanol, cyclohexane, methanol and water on extruded triclinic form was studied. […] FIGS. 21 to 25 show the PXRD patterns highlighting the effect of adding the different solvents to extrude. It was observed that conversion rate from triclinic to orthorhombic form was proportional to solubility of orthorhombic form in each solvent.

C[C@@H]1CC[C@H]2[C@@H](C)C(=O)O[C@@H]3O[C@@]4(C)CC[C@@H]1[C@]32OO4 [orthorhombic form, artemisinin, reference compound]
average maximum concentration (Cmax) ([1]; oral, plasma): 16000 ng/mL
average time where the concentration reached a maximum (Tmax) ([1]; oral, plasma): 4 h

C[C@@H]1CC[C@H]2[C@@H](C)C(=O)O[C@@H]3O[C@@]4(C)CC[C@@H]1[C@]32OO4 [artemisinin]
stability of crystal form (transformation to orthorhombic form) [2]: transformed to orthorhombic form within a week

C[C@@H]1CC[C@H]2[C@@H](C)C(=O)O[C@@H]3O[C@@]4(C)CC[C@@H]1[C@]32OO4 [triclinic form, artemisinin]
dissolution rate in comparison with starting material [3]: four times greater
Cmax ([1]; albino Wistar, rat, plasma, po, 100 mg, plasma, read-out: average maximum concentration (Cmax)): 31000 ng/mL
Tmax ([1]; albino Wistar, rat, plasma, po, 100 mg, plasma, read-out: average time where the concentration reached a maximum (Tmax)): 5 h
AUC compared with the orthorhombic form ([1]; oral): two fold increase
rank order of transformation from triclinic to orthorhombic form ([4]; 0.2 ml solvent added to 3 g extruded sample): acetone>methanol>ethanol>cyclohexane>water
transformation to orthorhombic form in the sample containing water ([4]; 0.2 ml water added to 3 g extruded sample): no transformation was observed

Reference: patent US20150165400A1, “CRYSTALLISATION PROCESS” (University of Bradford, priority 2012, published 2015)
